Experimental findings from patent publication US20250282749A1 (Tango Therapeutics, Inc., priority 2022, published 2025) are described below.

What all share (assay type): cell-based
For assay [1], the system named is PRMT5 (SDMA) in HAP1 MTAP-intact cell line. Kind of assay: SDMA in-cell western assay, HAP1 MTAP-intact cell line. The note with it: Homo sapiens, HAP1 MTAP-intact cell line (endogenous MTAP), read-out: Hap 1 MTAP intact IC50. The source says: (§1) HAP1 MTAP-intact is a cell line in which endogenous levels of MTAP are expressed, and HAP1 MTAP-deleted is an MTAP-null cell line.

Assay [2] concerns PRMT5 (SDMA) in HAP1 MTAP-deleted cell line. Kind of assay: SDMA in-cell western assay, HAP1 MTAP-deleted cell line. The settings on record: for IC50 / IC90: Homo sapiens, SDMA in-cell western, HAP1 MTAP-deleted (MTAP-null) cell line; for Hap1 MTAP intact/deleted ratio: ratio of SDMA in-cell western IC50 in HAP1 MTAP-intact to IC50 in HAP1 MTAP-deleted cell line.
Excerpt: as §1

The test system of assay [3] is HAP1 MTAP-deleted cell line. Kind of assay: viability assay for the MTAP-deleted cell line. The note with it: Homo sapiens.

A word on the IC50: it is the midpoint of a concentration-inhibition curve. What is called IC90 is the concentration needed for an effect of 90%. With `CC(C)OC(=O)N1C[C@H](c2ccc(F)cc2)N(C(=O)C(=O)Nc2cnc(N)c(C3CC3)c2)C[C@H]1C` (stereo in doubt) [Compound 92, isopropyl 4-(2-((6-amino-5-cyclopropylpyridin-3-yl)amino)-2-oxoacetyl)-5-(4-fluorophenyl)-2-methylpiperazine-1-carboxylate], in assay [1], the IC50 is > 50 nM. Also, in assay [2], the IC50 was > 50 nM, the IC90 was > 125 nM and the “Hap1 MTAP intact/deleted ratio” value is “C (an IC50 ratio of less than 15 fold)”. The IC50 in assay [3] was > 1000 nM.

On to `C[C@@H]1CN(C(=O)C(=O)Nc2cnc(N)c3cn[nH]c23)[C@@H](c2cccc(Cl)c2)CN1C` [Compound 18], for which the IC50 in assay [1] is > 50 nM. For the same compound, in assay [2], the IC50 is < 5 nM, the IC90 is < 75 nM and the “Hap1 MTAP intact/deleted ratio” value is reported as “A (an IC50 ratio greater than or equal to 30 fold)”. Also, the IC50 in assay [3] was < 100 nM.

As for `C[C@@H]1CN(C(=O)C(=O)Nc2cnc(N)c(C3COC3)c2)[C@@H](c2ccc(F)cc2)CN1C(=O)OC(C)(C)C` [Compound 2, (2R,5S)-tert-butyl 4-(2-((6-amino-5-(oxetan-3-yl)pyridin-3-yl)amino)-2-oxoacetyl)-5-(4-fluorophenyl)-2-methylpiperazine-1-carboxylate], in assay [1], the IC50 was > 50 nM. Moreover, in assay [2], the IC50 was < 5 nM, the IC90 is < 75 nM and the “Hap1 MTAP intact/deleted ratio” value is on record as “C (an IC50 ratio of less than 15 fold)”. For the same compound, in assay [3], the IC50 was < 100 nM.

Regarding `Cc1ccc([C@H]2CN(C(=O)C3(C(F)(F)F)CC3)[C@H](C)CN2C(=O)C(=O)Nc2cnc(N)c(C)c2)cc1` [Compound 128, N-(6-amino-5-methylpyridin-3-yl)-2-((2S,5R)-5-methyl-2-(p-tolyl)-4-(1-(trifluoromethyl)cyclopropanecarbonyl)piperazin-1-yl)-2-oxoacetamide], the IC50 in assay [1] was > 50 nM. For the same compound, in assay [2], the concentration for half-maximal inhibition (IC50) was 5 to 50 nM, the 90% effect concentration (IC90) was 75 to 125 nM and the “Hap1 MTAP intact/deleted ratio” value is listed as “B (an IC50 ratio greater than or equal to 15 fold but lower than 30 fold)”. Further, the IC50 in assay [3] was < 100 nM.

For `CC(C)C(=O)N1C[C@@H](c2ccc(F)c(F)c2)N(C(=O)C(=O)Nc2cnc(N)c(C3CC3)c2)C[C@H]1C` [Compound 160, N-(6-amino-5-cyclopropylpyridin-3-yl)-2-((5R)-2-(3,4-difluorophenyl)-4-isobutyryl-5-methylpiperazin-1-yl)-2-oxoacetamide], the IC50 is > 50 nM in assay [1], > 50 nM in assay [2] and > 1000 nM in assay [3]. Also, the IC90 in assay [2] was > 125 nM. For the same compound, the “Hap1 MTAP intact/deleted ratio” value in assay [2] is reported as “C (an IC50 ratio of less than 15 fold)”.

On to `Cc1cc(NC(=O)C(=O)N2C[C@H](C)N(C(=O)C(C)C)C[C@H]2c2ccc3scnc3c2)cnc1N` (single isomer, unassigned) [Compound 45], for which, in assay [1], the IC50 was > 50 nM. Besides, in assay [2], the IC50 was > 50 nM, the IC90 is > 125 nM and the “Hap1 MTAP intact/deleted ratio” value is on record as “C (an IC50 ratio of less than 15 fold)”. Further, the IC50 in assay [3] is > 1000 nM.

Take `CC(=O)N1C[C@H](c2ccccc2)N(C(=O)C(=O)Nc2cnc(N)c3cn[nH]c23)C[C@H]1C` [Compound 52]: the IC50 in assay [1] is > 50 nM. Besides, in assay [2], the IC50 was in the range of 5 to 50 nM, the IC90 is < 75 nM and the “Hap1 MTAP intact/deleted ratio” value was “B (an IC50 ratio greater than or equal to 15 fold but lower than 30 fold)”. Besides, the 50% inhibitory concentration (IC50) in assay [3] is < 100 nM.

For `C[C@@H]1CN(C(=O)C(=O)Nc2cnc(N)c3cn[nH]c23)[C@@H](c2ccccc2)CN1C` [Compound 57], in assay [1], the IC50 is > 50 nM. Further, in assay [2], the IC50 was < 5 nM, the IC90 is < 75 nM and the “Hap1 MTAP intact/deleted ratio” value is on record as “B (an IC50 ratio greater than or equal to 15 fold but lower than 30 fold)”. In addition, the IC50 in assay [3] is < 100 nM.

Take `CC(C)C(=O)N1C[C@@H](c2ccc(F)cc2)N(C(=O)C(=O)Nc2cnc(N)c(C3CC3)c2)C[C@@H]1C` [Compound 115, N-(6-amino-5-cyclopropyl-3-pyridyl)-2-[(2R,5S)-2-(4-fluorophenyl)-5-methyl-4-(2-methylpropanoyl)piperazin-1-yl]-2-oxo-acetamide]: the results for the IC50 in assay [1], in assay [2] and in assay [3] were > 50 nM, > 50 nM and > 1000 nM, respectively. Also, in assay [2], the IC90 is > 125 nM. Also, the “Hap1 MTAP intact/deleted ratio” value in assay [2] was “C (an IC50 ratio of less than 15 fold)”.

Turning to `CCc1cc(NC(=O)C(=O)N2C[C@@H](C)N(CC(C)(C)C)C[C@@H]2c2ccccc2)cnc1N` [Compound 121, N-(6-amino-5-ethylpyridin-3-yl)-2-((2S,5R)-5-methyl-4neopentyl-2-phenylpiperazin-1-yl)-2-oxoacetamide], in assay [1], the IC50 was > 50 nM. Further, in assay [2], the IC50 lay in the range of 5 to 50 nM, the 90% effect concentration (IC90) lay within 75 to 125 nM and the “Hap1 MTAP intact/deleted ratio” value is on record as “B (an IC50 ratio greater than or equal to 15 fold but lower than 30 fold)”. Besides, the IC50 in assay [3] was < 100 nM.

As for `CCc1cc(NC(=O)C(=O)N2C[C@@H](C)N(C(=O)C(C)C)C[C@@H]2c2ccc(N3CCN(C)CC3)cc2)cnc1N` [Compound 89, N-(6-amino-5-ethylpyridin-3-yl)-2-((2S,5R)-4-isobutyryl-5-methyl-2-(4-(4-methylpiperazin-1-yl)phenyl)piperazin-1-yl)-2-oxoacetamide], the IC50 in assay [1] was > 50 nM; in assay [2], < 5 nM; in assay [3] it was < 100 nM. Moreover, the concentration for an effect of 90% (IC90) in assay [2] was < 75 nM. Further, the “Hap1 MTAP intact/deleted ratio” value in assay [2] is recorded as “A (an IC50 ratio greater than or equal to 30 fold)”.

Consider `Cc1cc(NC(=O)C(=O)N2C[C@@H](C)N(C(=O)C(C)C)C[C@@H]2c2cccc(N3CCN(C)CC3)c2)cnc1N` [Compound 117, N-(6-amino-5-methylpyridin-3-yl)-2-((2S,5R)-4-isobutyryl-5-methyl-2-(3-(4-methylpiperazin-1-yl)phenyl)piperazin-1-yl)-2-oxoacetamide], for which the values for the IC50 in assay [1], in assay [2] and in assay [3] were 5 to 50 nM, 5 to 50 nM and < 100 nM, respectively. Further, in assay [2], the IC90 is < 75 nM. For the same compound, in assay [2], the “Hap1 MTAP intact/deleted ratio” value is “C (an IC50 ratio of less than 15 fold)”.

`C[C@@H]1CN(C(=O)C(=O)Nc2cncc3cn[nH]c23)[C@@H](c2ccccc2)CN1C(=O)C(C)(C)C` [Compound 156, 2-((2S,5R)-5-methyl-2-phenyl-4-pivaloylpiperazin-1-yl)-2-oxo-N-(1H-pyrazolo[4,3-c]pyridin-7-yl)acetamide]: in assay [1], the IC50 lay within 5 to 50 nM. Moreover, in assay [2], the IC50 is < 5 nM, the IC90 was < 75 nM and the “Hap1 MTAP intact/deleted ratio” value is listed as “C (an IC50 ratio of less than 15 fold)”. For the same compound, in assay [3], the IC50 was < 100 nM.

For the compound `CCc1cc(NC(=O)C(=O)N2C[C@@H](C)N(CC(C)C)C[C@@H]2c2ccccc2)cnc1N` [Compound 32, N-(6-amino-5-ethylpyridin-3-yl)-2-((2S,5R)-4-isobutyl-5-methyl-2-phenylpiperazin-1-yl)-2-oxoacetamide], the IC50 in assay [1] is > 50 nM. In assay [2], the IC50 lay in the range of 5 to 50 nM, the IC90 is > 125 nM and the “Hap1 MTAP intact/deleted ratio” value is “A (an IC50 ratio greater than or equal to 30 fold)”. The IC50 in assay [3] was < 100 nM.

For `C[C@@H]1CN(C(=O)C(=O)Nc2cnc(N)c(C3CC3)c2)[C@@H](c2ccc(F)c(Cl)c2)CN1C(=O)C1(C(F)(F)F)CC1` [Compound 14, N-(6-amino-5-cyclopropylpyridin-3-yl)-2-((2S,5R)-2-(3-chloro-4-fluorophenyl)-5-methyl-4-(1-(trifluoromethyl)cyclopropanecarbonyl)piperazin-1-yl)-2-oxoacetamide], in assay [1], the IC50 is > 50 nM. In assay [2], the IC50 is < 5 nM, the IC90 was < 75 nM and the “Hap1 MTAP intact/deleted ratio” value is listed as “C (an IC50 ratio of less than 15 fold)”. Besides, the IC50 in assay [3] was < 100 nM.

Take `CC(C)CN1C[C@H](c2ccccc2)N(C(=O)C(=O)Nc2cnc(N)c(C3CC3)c2)C[C@H]1C` [Compound 122, N-(6-amino-5-cyclopropylpyridin-3-yl)-2-((2S,5R)-4-isobutyl-5-methyl-2-phenylpiperazin-1-yl)-2-oxoacetamide]: the IC50 in assay [1] was > 50 nM. In assay [2], the IC50 was 5 to 50 nM, the IC90 is > 125 nM and the “Hap1 MTAP intact/deleted ratio” value is reported as “B (an IC50 ratio greater than or equal to 15 fold but lower than 30 fold)”. Besides, the IC50 in assay [3] is < 100 nM.

On to `CC(C)C(=O)N1C[C@H](c2ccc(N3CCN(C)CC3)cc2)N(C(=O)C(=O)Nc2cnc(N)c(C3CC3)c2)C[C@H]1C` (racemic) [Compound 4, rac-N-(6-amino-5-cyclopropylpyridin-3-yl)-2-((2R,5S)-4-isobutyryl-5-methyl-2-(4-(4-methylpiperazin-1-yl)phenyl)piperazin-1-yl)-2-oxoacetamide], for which the values for the IC50 in assay [1], in assay [2] and in assay [3] were > 50 nM, 5 to 50 nM and 100 to 1000 nM, respectively. For the same compound, in assay [2], the IC90 is > 125 nM. The “Hap1 MTAP intact/deleted ratio” value in assay [2] was “C (an IC50 ratio of less than 15 fold)”.

For `CCc1cc(NC(=O)C(=O)N2C[C@@H](C)N(C(=O)C(C)(C)C)C[C@@H]2c2ccccc2)cnc1N` [Compound 140, N-(6-amino-5-ethylpyridin-3-yl)-2-((2S,5R)-5-methyl-2-phenyl-4-pivaloylpiperazin-1-yl)-2-oxoacetamide], the half-inhibitory concentration (IC50) in assay [1] was 5 to 50 nM; in assay [2], < 5 nM; in assay [3], < 100 nM. Moreover, the IC90 in assay [2] was < 75 nM. In addition, the “Hap1 MTAP intact/deleted ratio” value in assay [2] is reported as “C (an IC50 ratio of less than 15 fold)”.
